Laboratory results from patent US5880106A, “Oral dosing formulations of dideoxy purine nucleosides” (Bristol-Myers Squibb Company, priority 1997, dated 1999).
Where two headings read alike, the source gives them in different places.

Experiments:
[1] = Solution stability of didanosine as a function of pH (stomach degradation model, Acid Neutralization Rate Test); format: physicochemical; conditions: water with hcl; pH 5, 37° C., 1/2 hour
[2] = 37° C., cited from earlier work

## OC[C@@H]1CC[C@H](n2cnc3c(O)ncnc32)O1 [Didanosine, 2',3'-Dideoxyinosine]
[1]
  degraded at 0.5 h: < 4%
[2]; pH 7.4
  t90: 16 days
[2]; pH 9.5
  t90: 509 days
[2]; pH <3
  t90: < 0.0014 days
